Measurements as given in patent publication US20250144067A1, “PERSONALIZED STARVATION THERAPY FOR CANCER” (Faeth Therapeutics, Inc., priority 2021, published 2025).
Where a name gives a salt, the structure may show the parent alone. Read-outs that look alike come from different tables or passages of the source.

What was measured:
[1] = test system: NCI-H292 lung cancer cells; assay: FDA drug screening, complete media vs cholesterol-free media without statin (TABLE 1); format: cell-based, human
[2] = test system: NCI-H292 lung cancer cells; assay: FDA drug screening, complete media vs cholesterol-free media with simvastatin (TABLE 2); format: cell-based, human
[3] = Complete minus Cholesterol-free, greater than 0 enhanced anti-cancer activity, about 0 neutral, below 0 antagonist
[4] = NCI-H292 cells, FDA drug library screen, cholesterol-free media without statin
[5] = NCI-H292 cells, FDA drug library screen, complete media
[6] = NCI-H292 cells, cholesterol-free media with simvastatin 0.04 μM, FDA drug library screen (TABLE 2)
[7] = NCI-H292 cells, complete media, FDA drug library screen (TABLE 2)
[8] = complete media minus cholesterol-free media + simvastatin (0.04 μM), >0 enhanced anti-cancer activity, about 0 neutral, <0 antagonist
[9] = Complete minus Cholesterol-free, greater than 0 enhanced anti-cancer activity, about 0 neutral, below 0 antagonists
[10] = NCI-H292 cells in cholesterol-free media without statin
[11] = NCI-H292 cells in complete media
[12] = NCI-H292 cells, drug in cholesterol-free media with simvastatin 0.04 μM
[13] = NCI-H292 cells, drug in complete media
[14] = complete media vs cholesterol-free media + simvastatin (0.04 μM), >0 enhanced anti-cancer activity, about 0 neutral, <0 antagonist
[15] = complete media minus cholesterol-free media + simvastatin, >0 enhanced anti-cancer activity, about 0 neutral, <0 antagonist
[16] = Complete minus Cholesterol-free, >0 enhanced anti-cancer activity, about 0 neutral, <0 antagonist
[17] = NCI-H292 cells, cholesterol-free media without statin
[18] = complete vs cholesterol-free media, greater than 0 enhanced anti-cancer activity, about 0 neutral, below 0 antagonists
[19] = NCI-H292 cells, FDA drug library screen, cholesterol-free media with simvastatin 0.04 μM
[20] = NCI-H292 cells, FDA library drug in cholesterol-free media with simvastatin 0.04 μM
[21] = NCI-H292 cells, FDA library drug in complete media

## OC1(c2ccc(Cl)c(C(F)(F)F)c2)CCN(CCCC(c2ccc(F)cc2)c2ccc(F)cc2)CC1 [Penfluridol]
[1]; [3]
  Difference: −0.14
[1]; [4]
  Cholesterol-free: 0.7419
[1]; [5]
  Complete: 0.6047
[2]; [6]
  Cholesterol-free media + simvastatin (0.04 μM): 1.076
[2]; [7]
  Complete Media: 1.033
[2]; [8]
  Difference: −0.04

## CC(C)(S)[C@@H](N)C(=O)O [Penicillamine]
[1]; [9]
  Difference: −0.55
[1]; [10]
  Cholesterol-free: 1.556
[1]; [11]
  Complete: 1.005
[2]; [12]
  Cholesterol-free media + simvastatin (0.04 μM): 1.252
[2]; [13]
  Complete Media: 1.083
[2]; [14]
  Difference: −0.17

## CC1(C)S[C@@H]2[C@H](NC(=O)Cc3ccccc3)C(=O)N2[C@H]1C(=O)O.CC1(C)S[C@@H]2[C@H](NC(=O)Cc3ccccc3)C(=O)N2[C@H]1C(=O)O.O.O.O.O.c1ccc(CNCCNCc2ccccc2)cc1 [Penicillin G benzathine (tetrahydrate)]
[1]; [9]
  Difference: −0.54
[1]; [10]
  Cholesterol-free: 1.6
[1]; [11]
  Complete: 1.064
[2]; [12]
  Cholesterol-free media + simvastatin (0.04 μM): 1.321
[2]; [13]
  Complete Media: 1.126
[2]; [14]
  Difference: −0.20

## N=C(N)c1ccc(OCCCCCOc2ccc(C(=N)N)cc2)cc1.O=S(=O)(O)CCO.O=S(=O)(O)CCO [Pentamidine (isethionate)]
[1]; [3]
  Difference: −0.17
[1]; [4]
  Cholesterol-free: 0.6432
[1]; [5]
  Complete: 0.4688
[2]; NCI-H292 cells, cholesterol-free media with simvastatin 0.04 μM, cell growth value in FDA drug screen
  Cholesterol-free media + simvastatin (0.04 μM): 0.3285
[2]; NCI-H292 cells, complete media, cell growth value in FDA drug screen
  Complete Media: 0.4548
[2]; [15]
  Difference: 0.13

## OC[C@H]1O[C@@H](n2cnc3c2NC=NC[C@H]3O)C[C@@H]1O [Pentostatin]
[1]
  Cholesterol-free: 1.242
  Complete: 0.8025
  Difference: −0.44
[2]
  Cholesterol-free media + simvastatin (0.04 μM): 1.49
  Complete Media: 1.245
  Difference: −0.25

## CC(=O)CCCCn1c(=O)c2c(ncn2C)n(C)c1=O [Pentoxifylline]
[1]; [16]
  Difference: −0.26
[1]; [17]
  Cholesterol-free: 1.143
[1]; NCI-H292 cells, complete media
  Complete: 0.8845
[2]; [6]
  Cholesterol-free media + simvastatin (0.04 μM): 0.9442
[2]; [7]
  Complete Media: 0.9268
[2]; [8]
  Difference: −0.02

## CCC(CC)[C@H](NC(C)=O)[C@@H]1[C@H](O)[C@@H](C(=O)O)C[C@H]1NC(=N)N.O.O.O [Peramivir (trihydrate)]
[1]; [17]
  Cholesterol-free: 2.062
[1]; NCI-H292 cells, complete media
  Complete: 1.606
[1]; [18]
  Difference: −0.46
[2]; [19]
  Cholesterol-free media + simvastatin (0.04 μM): 1.025
[2]; [5]
  Complete Media: 0.9283
[2]; [14]
  Difference: −0.10

## CC(C)=CCC/C(C)=C/CC/C(C)=C/C=C/C(C)=C/C(=O)O [Peretinoin]
[1]; [16]
  Difference: −0.19
[1]; [17]
  Cholesterol-free: 1.271
[1]; NCI-H292 cells, complete media
  Complete: 1.084
[2]; [20]
  Cholesterol-free media + simvastatin (0.04 μM): 1.273
[2]; [21]
  Complete Media: 0.971
[2]; [14]
  Difference: −0.30

## FC(F)(F)C(F)(F)C(F)(F)C(F)(F)C(F)(F)C(F)(F)C(F)(F)C(F)(F)Br [Perflubron]
[1]; [9]
  Difference: −0.50
[1]; [10]
  Cholesterol-free: 1.905
[1]; [11]
  Complete: 1.408
[2]; [19]
  Cholesterol-free media + simvastatin (0.04 μM): 0.901
[2]; [5]
  Complete Media: 1.248
[2]; [15]
  Difference: 0.35

## C1CCC(C(CC2CCCCN2)C2CCCCC2)CC1 (stereo not drawn) [Perhexiline maleate]
[1]; [3]
  Difference: −0.14
[1]; [4]
  Cholesterol-free: 1.139
[1]; [5]
  Complete: 1.003
[2]; [6]
  Cholesterol-free media + simvastatin (0.04 μM): 0.8717
[2]; [7]
  Complete Media: 0.811
[2]; [8]
  Difference: −0.06

## N#Cc1ccc2c(c1)N(CCCN1CCC(O)CC1)c1ccccc1S2 [Pericyazine]
[1]; [3]
  Difference: −0.09
[1]; [4]
  Cholesterol-free: 0.9265
[1]; [5]
  Complete: 0.8353
[2]; [6]
  Cholesterol-free media + simvastatin (0.04 μM): 1.378
[2]; [7]
  Complete Media: 1.353
[2]; [8]
  Difference: −0.02

## CC(C)(C)N.CCC[C@H](N[C@@H](C)C(=O)N1[C@H](C(=O)O)C[C@@H]2CCCC[C@@H]21)C(=O)OCC [Perindopril (erbumine)]
[1]; [16]
  Difference: −0.25
[1]; [17]
  Cholesterol-free: 1.151
[1]; NCI-H292 cells, complete media
  Complete: 0.8989
[2]; [19]
  Cholesterol-free media + simvastatin (0.04 μM): 0.9237
[2]; [5]
  Complete Media: 0.7917
[2]; [14]
  Difference: −0.13

## CC1(C)C(C=C(Cl)Cl)C1C(=O)OCc1cccc(Oc2ccccc2)c1 (stereo not drawn) [Permethrin]
[1]; [17]
  Cholesterol-free: 1.352
[1]; NCI-H292 cells, complete media
  Complete: 0.9496
[1]; complete vs cholesterol-free media, […]
  Difference: −0.40
[2]; [20]
  Cholesterol-free media + simvastatin (0.04 μM): 1.233
[2]; [21]
  Complete Media: 0.8994
[2]; complete media vs cholesterol-free media + simvastatin (0.04 μM), […]
  Difference: −0.33

## O=C1[C@H]2CCCC[C@H]2C(=O)N1CCCCN1CCN(c2nsc3ccccc23)CC1 [Perospirone]
[1]; [17]
  Cholesterol-free: 1.046
[1]; NCI-H292 cells, complete media
  Complete: 0.7154
[1]; [18]
  Difference: −0.33
[2]; [6]
  Cholesterol-free media + simvastatin (0.04 μM): 0.9946
[2]; [7]
  Complete Media: 0.9329
[2]; [8]
  Difference: −0.06
